Results on one molecule are retold here after US9663561B2, “Methods of treatment of cancer using SRC-modulating peptides” (The University of Toledo, priority 2006, dated 2017).

The subject of one assay is LLC-PK1 cells. The experiment in a line: Recruitment of Src to the Na+/K+-ATPase signaling complex (co-immunoprecipitation). The class given is cell-based, pig. Conditions: 1 μM ouabain 5 min, control cells. As to the method: FIG. 9C Inhibition of Src blocks ouabain-induced recruitment of Src to the Na+/K+-ATPase signaling complex. LLC-PK1 cells were pretreated with 1 μM PP2 or PP3 for 15 min and then exposed to 1 μM ouabain for 5 min. Cell lysates were immunoprecipitated and analyzed. Values are mean±SE of at least four independent experiments. * p<0.05.
Cells were lysed in RIPA buffer containing 1% Nonidet P40, 0.25% sodium deoxycholate, 150 mM NaCl, 1 mM EDTA, 1 mM phenylmethylsulfonyl fluoride, 1 mM sodium orthovanadate, 1 mM NaF, 10 μg/ml aprotinin, 10 μg/mlleupeptin, and 50 mM Tris-HCl (pH 7.4). Cell lysates were cleared by centrifugation at 16,000×g for […], and the supernatants (1 mg) were either immunoprecipitated with anti-α1 antibody or incubated with different GST-fusion proteins. The complexes were then pulled down by either protein G agarose or glutathione beads (Ma et al., 2000; Haas et al., 2002) and analyzed by Western blot.

In assay [1] the test system is Na+/K+-ATPase/Src complex. The assay can be described thus: Effect of ouabain on binding of GST-Src constructs to Na+/K+-ATPase. The settings on record: 10 μM ouabain, 15 min. The procedure:
FIG. 7C. A representative Western blot of four separate experiments showing that ouabain induced the release of the kinase domain from the Na+/K+-ATPase. […] Complexes were then pulled down on glutathione beads, washed three times, resuspended in 500 μl PBS, and exposed to 10 μM ouabain for 15 min. The beads were then washed for three more times using PBS, and the pulled down Na+/K+-ATPase was analyzed by Western blot using anti-α1 antibody
Because the inventors have shown that multiple domains are involved in Src interaction with the Na+/K+ATPase, the above findings led us to test if ouabain dissociates only a single (kinase) domain from the interacting Na+/K+-ATPase. […] Afterward, the complexes were exposed to 10 μM ouabain.

The target in assay [2] is T1, Na+/K+-ATPase/Src complex (Sus scrofa, UniProt P05024).
T1 construct: Na+/K+-ATPase was purified from pig kidney outer medulla using the Jorgensen method; tissue Upstate Biotechnology (Src only); host or cells: pig kidney outer medulla (Na+/K+-ATPase)
The experiment in a line: Src kinase activity (commercial kit) of Na+/K+-ATPase-bound Src. Format: biochemical. Conditions: 10 μM ouabain. As to the method:
The Src kinase activity was assayed using a commercial kit (Haas et al., 2000). To determine how Na+/K+-ATPase affects Src kinase activity, the purified Src (4.5 U) was incubated with 5 μg of the purified Na+/K+-ATPase in the Src assay buffer for 30 min at room temperature. Afterward, both control Src or the Na+/K+-ATPase-bound Src were exposed to 10 μM ouabain and Src kinase activity was determined. In other experiments, the Src pY418 was measured by anti-pY418 antibody to indicate Src activation (Ma et al., 2000). To do so, the purified Src (4.5 U) was incubated with different amounts of the purified Na+/K+-ATPase or GST-Na+/K+ATPase constructs in phosphate-buffered saline (PBS) for 30 min at 37° C. Afterward, 2 mM ATP/Mg2+ was added. The reaction continued for 5 min at 37° C. and was stopped by addition of SDS sample buffer.

The subject of a further assay is Src and ERK1/2. The experiment in a line: Activation of Src and ERK1/2 in P-11, A4-11, PY-17 and AAC-19 cells (Western blot). The class given is cell-based, pig. The settings on record: for Src activation (Tyr(P)418-Src): 100 nM ouabain. As to the method: FIGS. 18A and 18B. Cells were exposed to 100 nM ouabain for either 5 or 15 min, and the cell lysates (50 μg/lane) were analyzed by Western blot for active Src or active ERK1/2. Blots were probed first with anti-Tyr(P)^418-Src or anti-pERK antibody, then stripped, and reprobed for total Src or ERK1/2 to ensure equal loading.
FIGS. 18 C and 18D. Cells were treated with indicated concentrations of ouabain for 5 min, and total cell lysates were analyzed for Tyr(P)^418-Src and total Src or pERK1/2 and total ERK1/2 as in FIGS. 18A and 18B. A representative Western blot and combined quantitative data are shown. The quantitative data (relative ratio of pSrc/Src or pERK/ERK) from three independent experiments (mean±S.E.) were calculated relative to the control condition of P-11 cells. *, p<0.05 versus the respective control condition of each cell line. con, control.
Cells were washed with PBS, solubilized in modified ice-cold radioimmune precipitation assay buffer, and subjected to immunoprecipitation or Western blot analysis. Protein signal was detected using the enhanced chemiluminescence kit and quantified using a Bio-Rad GS-670 imaging densitometer.
On the technique in general: Immunoblotting shows a protein as a band on a membrane.

The next assay has as its system Src and ERKs. Conditions: cultured cells and animal models; cited from earlier work.
For assay [3], the target named is T2, Src-ECFP and EYFP-rat α1 in LLC-PK1 cells (Rattus norvegicus, UniProt P06685).
T2 construct: expressed in transfected cells; host or cells: LLC-PK1 (pig kidney)
The assay can be described thus: FRET analysis in live cells. Conditions: 100 μM ouabain, live LLC-PK1 cell. Format: cell-based, pig. As to the method:
LLC-PK1 cells were cotransfected with Src-ECFP and EYFP-rat α1 and grown on a glass coverslip for 24 h. The coverslip was then mounted in a metal chamber and analyzed with a Leica DMIRE2 confocal microscope. The laser lines of 456 nm and 515 nm were used to illuminate fluorescence, and the emission intensities were recorded at 465-509 nm for Src-ECFP and 530-570 nm for EYFP-rat α1. The cell that expresses both Src-ECFP and EYFP-rat α1 was chosen and illuminated by only 456-nm laser. The cells express only Src-ECFP or EYFP-rat α1 were used for correction and determination of the laser intensity as well as the gain and offset settings. The emission intensities for both Src-ECFP and EYFP-rat α1 in selected membrane region was recorded at 465-509 nm (FECFP) and 530-570 nm (FEYEP), respectively. The FRET efficiency was reflected by the ratio of FEYFP/FECFP. After 50 s of recording, the same cell was exposed to ouabain and the recording was continued for indicated time.

For the molecule `C[C@@H]1O[C@@H](O[C@H]2C[C@@H](O)[C@]3(CO)[C@H]4[C@H](O)C[C@]5(C)[C@@H](C6=CC(=O)OC6)CC[C@]5(O)[C@@H]4CC[C@]3(O)C2)[C@H](O)[C@H](O)[C@H]1O` [ouabain], the “Src coprecipitated with α1” value in the assay on LLC-PK1 cells is recorded as “increased coprecipitated Src”. Besides, the “binding of Src kinase domain to the Na+/K+-ATPase” value in assay [1] is recorded as “dissociated the kinase domain”. The “binding of full-length Src or SH3SH2 domain to the Na+/K+-ATPase” value in assay [1] is reported as “no effect on the binding of either full-length Src or the SH3SH2 domain”. Moreover, the “Src kinase activity of Na+/K+-ATPase-bound Src” value in assay [2] is on record as “restored the kinase activity”. Moreover, the “Src activation (Tyr(P)418-Src)” value in the assay with Src and ERK1/2 (A4-11 cells) was “significant reduction”; with Src and ERK1/2 (P-11 cells), “activated Src”; with Src and ERK1/2 (PY-17 cells) it was “essentially abolished”. Further, the “dose-response of Src and ERK1/2 activation” value in the assay with Src and ERK1/2 (AAC-19 cells (rat α1 knock-in)) was “shifted the dose-response curve to the right”. In the assay on Src and ERK1/2 (PY-17 cells, ouabain), the ERK1/2 phosphorylation result was “failed to detect any ouabain-induced change”. Besides, in the assay with Src and ERKs, the “physiological concentrations able to activate Src and ERKs” value was 0.1-1 nM. Moreover, the “FRET between Src-ECFP and EYFP-rat α1” value in assay [3] is “reduction in FRET”.
